Source: a compilation of properties of binary mixtures (doi:10.1016/j.molliq.2022.121176)

Test: xn = mol fraction of the nth substance listed
Settings: 298 K, 101.3 kPa

In the case of `II` + CCCC[n+]1ccn(C)c1.[I-], the electrical conductivity (x2 = 0.2) is reported as 5.13 S/m, the electrical conductivity (x2 = 0.25) is reported as 4.31 S/m and the electrical conductivity (x2 = 0.5) is reported as 0.735 S/m.

For `CC[n+]1ccn(C)c1.[I-]` + II, the electrical conductivity (x1 = 0.2) was 7.17 S/m, the electrical conductivity (x1 = 0.25) was 6.5 S/m and the viscosity (x1 = 0.25) was 18.8 mPa·s. For the same molecule, the electrical conductivity (x1 = 0.333) was 5.08 S/m.

In the case of `CCCC[n+]1ccn(C)c1.[I-]` + II, the electrical conductivity (x1 = 1) is reported as 0.035 S/m.

`CCCCCC[n+]1ccn(C)c1.[I-]` + II gave an electrical conductivity (x1 = 1) of 0.0186 S/m.

Work on `C=CCn1cc[n+](C)c1.[I-]` + II yielded an electrical conductivity (x1 = 0.2) of 4.07 S/m and an electrical conductivity (x1 = 0.333) of 3.82 S/m.

For `II` + CCCCCC[n+]1ccn(C)c1.[I-], the electrical conductivity (x2 = 0.2) was 3.89 S/m, the electrical conductivity (x2 = 0.25) was 2.93 S/m and the electrical conductivity (x2 = 0.333) was 1.96 S/m. For the same molecule, the electrical conductivity (x2 = 0.5) was 0.429 S/m.

Work on `II` + CCCCCCCCCCCC[n+]1ccn(C)c1.[I-] yielded an electrical conductivity (x2 = 0.25) of 1.39 S/m.
